Assay results reported in patent publication US20060287251A1, “Combination therapy for glycaemic control” (priority 2003, published 2006).

Tests used:
diabetic Zucker rats = test: Dose escalation study with OGTT in fatty Zucker rats after oral administration; type: in vivo, rat
Procedure: N=30 male Zucker rats (fa/fa), mean age 11 weeks (5-12 weeks), mean body weight 350 g (150-400 g), were purchased from Charles River (Sulzfeld, Germany). After delivery they were kept for >12 weeks until nearly all fatty Zucker rats had the characteristics of manifest diabetes mellitus. A group of N=8 animals were recruited for testing three escalating doses of glutaminyl pyrrolidine vs. placebo (saline). Animals were single-caged under standardized conditions with controlled temperature (22±2° C.) on a 12/12 hours light/dark cycle (light on at 06:00 AM). Sterile standard pelleted chow (ssniff® Soest, Germany) and tap water acidified with HCl were allowed ad libitum. Fatty Zucker rats of 24-31 weeks (mean: 25 weeks) age, adapted to the housing conditions, were well prepared for the study. Catheters were implanted into the carotid artery of fatty Zucker rats under general anaesthesia (i.p. injection of 0.25 ml/kg b.w. Rompun®[2%], BayerVital, Germany and 0.5 ml/kg b.w. Ketamin 10, Atarost GmbH & Co., Twistringen, Germany). The animals were allowed to recover for one week. The catheters were flushed with heparin-saline (100 IU/ml) three times per week.
Placebo (1 ml saline, 0.154 mol/l) or escalating doses of glutaminyl pyrrolidine (5, 15 and 50 mg/kg b.w.) were administered to groups of N=8 fatty Zucker rats. 375 mg of glutaminyl pyrrolidine were dissolved in 1000 μl DMSO (E. Merck, Darmstadt; Germany [Dimethyl sulfoxide p.a.]). 10 mL saline was added and 1 ml aliquots, each containing 34.09 mg of glutaminyl pyrrolidine, were stored at −20° C. For preparation of the test substance, dose dependent aliquots were diluted in saline. After overnight fasting, placebo or test substance were administered to the fatty Zucker rats via feeding tube orally (15 G, 75 mm; Fine Science Tools, Heidelberg, Germany) at −10 min An oral glucose tolerance test (OGTT) with 2 g/kg b.w. glucose (40% solution, B. Braun Melsungen, Melsungen, Germany) was administered at ±O min via a second feeding tube. Venous blood samples from the tail veins were collected at −30 min, −15 min, ±0 min and at 5, 10, 15, 20, 30, 40, 60, 90 and 120 min into 20 lμl glass capillaries, which were placed in standard tubes filled with 1 mL solution for blood glucose measurement. All blood samples were labelled with Code number, Animal Number, Date of sampling and Time of sampling.
Glucose levels were measured using the glucose oxidase procedure (Super G Glucose analyzer; Dr. Müller Gerältebau, Freital, Germany).
Statistical evaluations and graphics were performed with PRISM® 3.02 (GraphPad Software, Inc.). All parameters were analysed in a descriptive manner including mean and SD. […]

[1] = test system: diabetic Zucker (fa/fa) rats; test: Glutaminyl thiazolidine and Metformin alone or in combination, glycemic control in diabetic Zucker (fa/fa) rats; type: in vivo, rat
Procedure: Ten or eleven weeks old male Zucker (fa/fa) rats were purchased from Charles River (Sulzfeld, Germany). Animals were kept under standardized semi-barrier conditions with controlled temperature (22±2° C.) on a 12/12 hours light/dark cycle (light on at 06:00 a.m.). Standard pelleted chow (ssniff®, Soest, Germany) and tap water acidified with HCl were allowed ad libitum. At the age of 12 weeks the animals (N=42) were divided in random order into six experimental groups to be medicated. Definition of the Experimental Groups for the Medications (GT=glutaminyl thiazolidine):
The single or combined doses per kg b.w. were solved in 5 mL dist. water for oral administration.
The study was started with the 12 to 13 weeks old Zucker (fa/fa) rats. At the beginning of the study an OGTT was performed (2 g glucose/kg body weight (b.w.); administration volume: 5 mL/kg of a 40% solution; B. Braun Melsungen, Melsungen, Germany) after a 16 h fast. […] Dosing was performed at t=5 min before OGTT by gavage.
Blood samples were taken from tail veins to measure blood glucose and serum insulin at −15, ±0 min, 15, 30, 60, 90, 120 and 180 min (the latter time without insulin samples) with respect to time of glucose administration.
After the first OGTT the animals in the groups were dosed twice daily with the respective drugs at 08:00 AM and at 04:00 PM, respectively:
During the two weeks of medication morning blood glucose was measured before the 08:00 AM medication at Monday, Wednesday and Friday.
Food intake was determined every day during the time of medication.
All the animals were weighted three times per week at 7:30 AM.
A second OGTT was performed after two weeks of medication (Day 15). The food was withdrawn at 04:00 PM the day before (16 h fast). The OGTT was performed with pre-medication at −5 min and oral glucose loading at ±0 min. Blood samples were taken from tail veins to measure blood glucose, and serum insuline at −15, ±0 min, 15, 30, 60, 90, 120 and 180 min (the latter time without insulin samples).
Glycated hemoglobin was measured before (Day −7) and on Day 18.
Glucose-For determination of glucose 20 μL blood were collected at −15, ±0 min (before OGTT) and 15, 30, 60, 90, 120 and 180 min post OGTT.
Insulin-Insulin concentrations were assayed by the antibody RIA method (Linco Research, Inc. St. Charles, Mo., USA).
Glycated haemoglobin-Percentage of glycated hemoglobin A (HbA1c) was estimated with the “DCA 2000R Hämoglobin A1c-Reagenz kit”(Bayer Vital GmbH, Fernwald, Germany).
The body weight was measured using a platform balance (Scaltec, Heiligenstadt, Germany).
Mixed venous blood samples from the tails were collected into 20 μL glass capillaries, which were placed in standard tubes filled with 1 ml solution for hemolysis (blood glucose measurement) and in sample tubes for serum insulin (50 μL blood).
Raw data of glucose analysis were provided by IDK to probiodrug in Excel format as soon as possible. Data for each drug and each parameter (glucose, insulin) were summarized by descriptive statistics (mean, SEM). […] Changes from baseline were calculated and summarized by descriptive statistic.

[2] = 5, 15 and 50 mg/kg b.w. oral (dose escalation)

Structure (SMILES)	glucose tolerance in OGTT (diabetic Zucker rats; 5 mg/kg b.w. oral, OGTT 2 g/kg glucose)	blood glucose levels and glucose tolerance in OGTT (diabetic Zucker rats; 15 mg/kg and 50 mg/kg b.w. oral, OGTT 2 g/kg glucose)	blood glucose levels and glucose tolerance in OGTT (diabetic Zucker rats; [2])	reactive and absolute G-AUC ([1]; GT 60 mg/kg b.w. and/or Metformin 125 mg/kg b.w. (Met-low), b.i.d. oral, p<0.05 vs. Control)	glucose tolerance curve in the OGTT ([1]; GT 60 mg/kg b.w. and/or Metformin 125 mg/kg b.w. (Met-low), b.i.d. oral, vs. Control)	glucose tolerance ([1]; subchronic (18 days) b.i.d. administration, diabetic fatty Zucker rats (fa/fa))
NC(=O)CC[C@H](N)C(=O)N1CCCC1 [glutaminyl pyrrolidine]	limited improvement of glucose tolerance	Significant lowering of elevated blood glucose levels and improvement of glucose tolerance	dose dependent lowering of elevated blood glucose levels	–	–	–
NC(=O)CC[C@H](N)C(=O)N1CCSC1 [glutaminyl thiazolidine]	–	–	dose dependent lowering of elevated blood glucose levels and improvement of glucose tolerance	significantly reduced	significantly improved glucose tolerance curves	improved glucose tolerance
